Results on 8 compounds are retold here after US9445594B2, “Molecules having certain pesticidal utilities, intermediates, compositions, and processes, related thereto” (priority 2014, dated 2016).

Common to all, as to assay type: in vivo
Data set [1] has as its system Beet Armyworm (Spodoptera exigua, LAPHEG) ("BAW"). Nature of the data set: Bioassays on BAW, 128-well diet tray assay. The note with it: 168 h, second instar larvae, 50 μg/cm^2 on artificial diet, 25° C., five to seven days, average of eight wells, read-out: BAW % Control (or Mortality) rating. The essentials:
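One to five second-instar larvae were placed per well on artificial diet surface-treated with 50 μg/cm^2 compound from 90:10 acetone-water, dried before infestation. Trays were held at 25 °C, 14:10 light-dark, for five to seven days. Percent mortality was averaged over eight wells.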

The subject of data set [2] is Cabbage Looper (Trichoplusia ni, TRIPNI) ("CL"). Nature of the data set: Bioassays on CL, 128-well diet tray assay. To be noted: 168 h, second instar larvae, 50 μg/cm^2 on artificial diet, 25° C., five to seven days, average of eight wells, read-out: CL % Control (or Mortality) rating. A digest of the protocol:
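Second-instar larvae (one to five per well) on artificial diet surface-treated with 50 μg/cm^2 compound in 90:10 acetone-water, eight wells per treatment. Held at 25° C., 14:10 light-dark for five to seven days. Percent mortality scored per well and averaged over the eight wells.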

Data set [3] concerns Green Peach Aphid (Myzus persicae, MYZUPE) ("GPA"). In words: Bioassays on GPA, foliar spray of infested cabbage seedlings. To be noted: 72 h, 200 ppm spray on cabbage seedlings, graded after three days, Abbott corrected % control, read-out: GPA % Control (or Mortality) rating. The protocol:
Certain molecules disclosed in this document were tested against GPA using procedures described in the following example. In the reporting of the results, the “GPA Rating Table” was used (See Table Section).
Cabbage seedlings grown in 3-inch pots, with 2-3 small (3-5 cm) true leaves, were used as test substrate. The seedlings were infested with 20-50 GPA (wingless adult and nymph stages) one day prior to chemical application. Four pots with individual seedlings were used for each treatment. Test compounds (2 mg) were dissolved in 2 mL of acetone/methanol (1:1) solvent, forming stock solutions of 1000 ppm test compound. The stock solutions were diluted 5× with 0.025% Tween 20 in water to obtain the solution at 200 ppm test compound. A hand-held aspirator-type sprayer was used for spraying a solution to both sides of […] leaves until runoff. Reference plants (solvent check) were sprayed with the diluent only containing 20% by volume of acetone/methanol (1:1) solvent. Treated plants were held in a holding room for three days at approximately 25° C. and ambient relative humidity (RH) prior to grading. Evaluation was conducted by counting the number of live aphids per plant under a microscope. Percent Control was measured by using Abbott's correction formula (W. S. Abbott, “A Method of Computing the Effectiveness of an Insecticide” J. Econ. Entomol. 18 (1925), pp. 265-267) as follows. Corrected % Control=100*(X−Y)/X • where • X=No. of live aphids on solvent check plants and • Y=No. of live aphids on treated plants

For data set [4], the system named is Yellow Fever Mosquito (Aedes aegypti, AEDSAE) ("YFM"). In words: Bioassays on YFM, 96-well plate larval assay. To be noted: about 1 day-old larvae, from 4000 ppm DMSO master plate diluted, room temperature, scored after 3 days. A digest of the protocol:
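Compounds from 4000 ppm DMSO master plates, diluted in 90:10 water:acetone, dispensed into 96-well plates, six replicates. About 1-day-old larvae added in liver-powder water. Wells covered, held 3 days at room temperature, then scored for mortality.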

SMILES strings stand for the structures.

`CC(C)CC(C)c1ccccc1NC(=O)Nc1ccc(-c2ncn(-c3ccc(OC(F)(F)F)cc3)n2)cc1` (centres unmarked) [F18, 1-(2-(4-methylpentan-2-yl)phenyl)-3-(4-(1-(4-(trifluoromethoxy)phenyl)-1H-1,2,4-triazol-3-yl)phenyl)urea]: the mortality at 50 µg/cm2 in data set [1] and in data set [2] was 50 to 100% each time. The mortality at 200 ppm in data set [3] came out at 0%. In addition, the “YFM % Control (or Mortality) rating” value in data set [4] is “D (No activity noticed in this bioassay)”.
Regarding `CC(C)c1cccc(NC(=O)NCCCc2ccc(-c3ncn(-c4ccc(OC(F)(F)F)cc4)n3)cc2)c1` [P2, 1-(3-Isopropylphenyl)-3-(3-(4-(1-(4-(trifluoromethoxy)phenyl)-1H-1,2,4-triazol-3-yl)phenyl)propyl)urea], the values for the mortality at 50 µg/cm2 in data set [1] and in data set [2] were 0 to 50% and 0%, respectively. For the same compound, the mortality at 200 ppm in data set [3] was 0%. The “YFM % Control (or Mortality) rating” value in data set [4] was “D (No activity noticed in this bioassay)”.
For the compound `CCc1cccc(C)c1NC(=O)NCCCc1ccc(-c2ncn(-c3ccc(OC(F)(F)F)cc3)n2)cc1` [P5, 1-(2-Ethyl-6-methylphenyl)-3-(3-(4-(1-(4-(trifluoromethoxy)phenyl)-1H-1,2,4-triazol-3-yl)phenyl)propyl)urea], the mortality at 50 µg/cm2 in data set [1] and in data set [2] was 0% in each case. The mortality at 200 ppm in data set [3] was 0%. Besides, the “YFM % Control (or Mortality) rating” value in data set [4] is on record as “D (No activity noticed in this bioassay)”.
As for `Cc1ccccc1-c1ccccc1NC(=O)NCCCc1ccc(-c2ncn(-c3ccc(OC(F)(F)F)cc3)n2)cc1` [FA1, 1-(2′-Methyl-[1,1′-biphenyl]-2-yl)-3-(3-(4-(1-(4-(trifluoromethoxy)phenyl)-1H-1,2,4-triazol-3-yl)phenyl)propyl)urea], the mortality at 50 µg/cm2 was 0% in data set [1] and 50 to 100% in data set [2]. In data set [3], the mortality at 200 ppm is 0%. The “YFM % Control (or Mortality) rating” value in data set [4] is given as “A (80-100)”.
As for `CCc1ccccc1-c1ccccc1NC(=S)Nc1ccc(-c2ncn(-c3ccc(OC(F)(F)F)cc3)n2)cc1` [F4, 1-(2′-Ethyl-[1,1′-biphenyl]-2-yl)-3-(4-(1-(4-(trifluoromethoxy)phenyl)-1H-1,2,4-triazol-3-yl)phenyl)thiourea], the mortality at 50 µg/cm2 in data set [1] and in data set [2] was 50 to 100% throughout. Moreover, the mortality at 200 ppm in data set [3] stood at 0%. Moreover, the “YFM % Control (or Mortality) rating” value in data set [4] is reported as “A (80-100)”.
Consider `O=C(Nc1ccc(-c2ncn(-c3ccc(OC(F)(F)F)cc3)n2)cc1)Nc1ncccc1-c1cccnc1` [F66, 1-([3,3′-Bipyridin]-2-yl)-3-(4-(1-(4-(trifluoromethoxy)phenyl)-1H-1,2,4-triazol-3-yl)phenyl)urea], for which the mortality at 50 µg/cm2 in data set [1] and in data set [2] was 50 to 100% throughout. Also, the mortality at 200 ppm in data set [3] lay within 0 to 80%. In addition, the “YFM % Control (or Mortality) rating” value in data set [4] is on record as “D (No activity noticed in this bioassay)”.
With `CC(C)c1ccccc1N(C(=O)Nc1ccc(-c2ncn(-c3ccc(OC(F)(F)F)cc3)n2)cc1)C(N)=S` [F6, N-[2-(Propan-2-yl)phenyl]-N-(4-{1-[4-(trifluoromethoxy)phenyl]-1H-1,2,4-triazol-3-yl}phenyl)dicarbonimidothioic diamide], the mortality at 50 µg/cm2 in data set [1] and in data set [2] was 50 to 100% in each case. Moreover, in data set [3], the mortality at 200 ppm lay in the range of 0 to 80%. The “YFM % Control (or Mortality) rating” value in data set [4] is given as “A (80-100)”.
As to `CCc1ccccc1-c1cccnc1NC(=S)Nc1ccc(-c2ncn(-c3ccc(OC(F)(F)F)cc3)n2)cc1` [F20, 1-(3-(2-Ethylphenyl)pyridin-2-yl)-3-(4-(1-(4-(trifluoromethoxy)phenyl)-1H-1,2,4-triazol-3-yl)phenyl)thiourea], the mortality at 50 µg/cm2 was 0 to 50% in data set [1] and 50 to 100% in data set [2]. In addition, the mortality at 200 ppm in data set [3] was in the range of 0 to 80%. Further, in data set [4], the “YFM % Control (or Mortality) rating” value is “D (No activity noticed in this bioassay)”.

A word on the mortality: it is the share of the test organisms that died.
